Values joined by “and” are separate entries in the source; they are usually repeats but may differ in a detail not shown here. Equal values may be shown once.
System: 743489-274-T-PDC complex spheroid growth
Assay: Anticancer human tumor 743489-274-T-PDC patient-derived renal cell carcinoma cell line growth inhibition [AhR]
Conditions: for viability, T/C: stronger effect = lower value
Outline: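 Complex tumor spheroids co-cultured with HUVEC and human MSC stroma; AhR antagonists tested in combination with standard-of-care and investigational agents. Top concentration at or near clinical Cmax (else 10 microM), half-log dilutions; growth expressed as percent test/control.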

[1] = curve of first compound, second compound 0.1 µM
[2] = curve of first compound, second compound 0.316 µM
[3] = curve of first compound, second compound 1 µM
[4] = curve of first compound, second compound 3.16 µM
[5] = curve of first compound, second compound 10 µM
[6] = second compound 0.1 µM, first compound 0.0316 µM
[7] = second compound 0.1 µM, first compound 0.1 µM
[8] = second compound 0.1 µM, first compound 0.316 µM
[9] = second compound 0.1 µM, first compound 1 µM
[10] = second compound 0.1 µM, first compound 3.16 µM
[11] = second compound 0.1 µM, first compound 10 µM
[12] = second compound 0.316 µM, first compound 0.0316 µM
[13] = second compound 0.316 µM, first compound 0.1 µM
[14] = second compound 0.316 µM, first compound 0.316 µM
[15] = second compound 0.316 µM, first compound 1 µM
[16] = second compound 0.316 µM, first compound 3.16 µM
[17] = second compound 0.316 µM, first compound 10 µM
[18] = second compound 1 µM, first compound 0.0316 µM
[19] = second compound 1 µM, first compound 0.1 µM
[20] = second compound 1 µM, first compound 0.316 µM
[21] = second compound 1 µM, first compound 1 µM
[22] = second compound 1 µM, first compound 3.16 µM
[23] = second compound 1 µM, first compound 10 µM
[24] = second compound 3.16 µM, first compound 0.0316 µM
[25] = second compound 3.16 µM, first compound 0.1 µM
[26] = second compound 3.16 µM, first compound 0.316 µM
[27] = second compound 3.16 µM, first compound 1 µM
[28] = second compound 3.16 µM, first compound 3.16 µM
[29] = second compound 3.16 µM, first compound 10 µM
[30] = second compound 10 µM, first compound 0.0316 µM
[31] = second compound 10 µM, first compound 0.1 µM
[32] = second compound 10 µM, first compound 0.316 µM
[33] = second compound 10 µM, first compound 1 µM
[34] = second compound 10 µM, first compound 3.16 µM
[35] = second compound 10 µM, first compound 10 µM
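Note: spheroids exposed to agents for 7 days before readout.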
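Throughout, for viability, T/C: 100% = DMSO vehicle control wells.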

O=C(c1cc(Cc2n[nH]c(=O)c3ccccc23)ccc1F)N1CCN(C(=O)C2CC2)CC1 + CC(CO)NC(=O)c1cc(-c2ccc(Cl)cc2)nn(-c2cnn(C)c2)c1=O
IC50 [1]: > 10 µM
IC50 [2]: > 10 µM
IC50 [3]: > 10 µM
IC50 [4]: > 10 µM
IC50 [5]: > 10 µM
viability, T/C [6]: 106%
viability, T/C [7]: 100%
viability, T/C [8]: 98.3%
viability, T/C [9]: 103%
viability, T/C [10]: 95.3%
viability, T/C [11]: 101%
viability, T/C [12]: 86.3%
viability, T/C [13]: 95.2%
viability, T/C [14]: 91.8%
viability, T/C [15]: 91.9%
viability, T/C [16]: 91%
viability, T/C [17]: 96.1%
viability, T/C [18]: 93.4%
viability, T/C [19]: 96.3%
viability, T/C [20]: 100%
viability, T/C [21]: 93.1%
viability, T/C [22]: 94.8%
viability, T/C [23]: 97%
viability, T/C [24]: 93.6%
viability, T/C [25]: 92.5%
viability, T/C [26]: 99.4%
viability, T/C [27]: 87.5%
viability, T/C [28]: 96.4%
viability, T/C [29]: 92.9%
viability, T/C [30]: 103%
viability, T/C [31]: 109%
viability, T/C [32]: 97.9%
viability, T/C [33]: 96.7%
viability, T/C [34]: 93.7%
viability, T/C [35]: 105%

CC1COCCN1c1cc(C2(S(C)(=N)=O)CC2)nc(-c2ccnc3[nH]ccc23)n1 (centres undefined) + CC(CO)NC(=O)c1cc(-c2ccc(Cl)cc2)nn(-c2cnn(C)c2)c1=O
IC50 [1]: > 10 µM
IC50 [2]: > 10 µM
IC50 [3]: > 10 µM
IC50 [4]: > 10 µM
IC50 [5]: > 10 µM
viability, T/C [6]: 97.5%
viability, T/C [7]: 89.1%
viability, T/C [8]: 94.7%
viability, T/C [9]: 92%
viability, T/C [10]: 98.7%
viability, T/C [11]: 96.7%
viability, T/C [12]: 90.2%
viability, T/C [13]: 99.5%
viability, T/C [14]: 96.3%
viability, T/C [15]: 86.2%
viability, T/C [16]: 85.3%
viability, T/C [17]: 91.3%
viability, T/C [18]: 99%
viability, T/C [19]: 84.7%
viability, T/C [20]: 95.3%
viability, T/C [21]: 101%
viability, T/C [22]: 87.4%
viability, T/C [23]: 93%
viability, T/C [24]: 92.7%
viability, T/C [25]: 86.8%
viability, T/C [26]: 86.1%
viability, T/C [27]: 90.3%
viability, T/C [28]: 84.5%
viability, T/C [29]: 103%
viability, T/C [30]: 109%
viability, T/C [31]: 94.2%
viability, T/C [32]: 89.9%
viability, T/C [33]: 83.3%
viability, T/C [34]: 93.7%
viability, T/C [35]: 102%

COc1ccc([C@@H](O)c2cc(-c3ncnc4cc(N5CCOCC5)ccc34)c(F)cc2Cl)nn1 + Cc1cncc(-c2nc(NCCc3c[nH]c4ccccc34)c3ncn(C(C)C)c3n2)c1
IC50 [1]: 3.86 µM
IC50 [2]: 3.13 µM
IC50 [3]: 2.82 µM
IC50 [4]: 4.55 µM
IC50 [5]: > 10 µM
viability, T/C [6]: 95.3%
viability, T/C [7]: 98.9%
viability, T/C [8]: 90.3%
viability, T/C [9]: 98.1%
viability, T/C [10]: 52.9%
viability, T/C [11]: 36.1%
viability, T/C [12]: 94.2%
viability, T/C [13]: 94.6%
viability, T/C [14]: 88.4%
viability, T/C [15]: 82.8%
viability, T/C [16]: 49.4%
viability, T/C [17]: 29.4%
viability, T/C [18]: 99.5%
viability, T/C [19]: 95%
viability, T/C [20]: 93.2%
viability, T/C [21]: 84.7%
viability, T/C [22]: 46%
viability, T/C [23]: 35.5%
viability, T/C [24]: 112%
viability, T/C [25]: 118%
viability, T/C [26]: 102%
viability, T/C [27]: 87.5%
viability, T/C [28]: 53.8%
viability, T/C [29]: 39.4%
viability, T/C [30]: 114%
viability, T/C [31]: 119%
viability, T/C [32]: 102%
viability, T/C [33]: 99.3%
viability, T/C [34]: 65.5%
viability, T/C [35]: 59.5%

O=C(C=Cc1cccc(S(=O)(=O)Nc2ccccc2)c1)NO + Cc1cncc(-c2nc(NCCc3c[nH]c4ccccc34)c3ncn(C(C)C)c3n2)c1
IC50 [1]: > 10 µM
IC50 [2]: > 10 µM
IC50 [3]: > 10 µM
IC50 [4]: > 10 µM
IC50 [5]: > 10 µM
viability, T/C [6]: 88.3%
viability, T/C [7]: 87.7%
viability, T/C [8]: 85.9%
viability, T/C [9]: 77.5%
viability, T/C [10]: 69.1%
viability, T/C [11]: 51.4%
viability, T/C [12]: 91.6%
viability, T/C [13]: 95%
viability, T/C [14]: 82.4%
viability, T/C [15]: 72.6%
viability, T/C [16]: 66.6%
viability, T/C [17]: 52.4%
viability, T/C [18]: 98.1%
viability, T/C [19]: 94.3%
viability, T/C [20]: 88.4%
viability, T/C [21]: 70.6%
viability, T/C [22]: 67.5%
viability, T/C [23]: 52.7%
viability, T/C [24]: 102%
viability, T/C [25]: 104%
viability, T/C [26]: 94%
viability, T/C [27]: 82%
viability, T/C [28]: 73.1%
viability, T/C [29]: 54.6%
viability, T/C [30]: 114%
viability, T/C [31]: 118%
viability, T/C [32]: 120%
viability, T/C [33]: 102%
viability, T/C [34]: 78%
viability, T/C [35]: 68.1%

COc1cc(C2c3cc4c(cc3C(OC3OC5COC(C)OC5C(O)C3O)C3COC(=O)C23)OCO4)cc(OC)c1O (centres undefined) + CC(CO)NC(=O)c1cc(-c2ccc(Cl)cc2)nn(-c2cnn(C)c2)c1=O
IC50 [1]: > 10 µM
IC50 [2]: > 10 µM
IC50 [3]: > 10 µM
IC50 [4]: > 10 µM
IC50 [5]: > 10 µM
viability, T/C [6]: 107%
viability, T/C [7]: 114%
viability, T/C [8]: 95.1%
viability, T/C [9]: 95.9%
viability, T/C [10]: 99.6%
viability, T/C [11]: 97%
viability, T/C [12]: 99.3%
viability, T/C [13]: 118%
viability, T/C [14]: 108%
viability, T/C [15]: 93.5%
viability, T/C [16]: 92%
viability, T/C [17]: 90.7%
viability, T/C [18]: 98.6%
viability, T/C [19]: 96.4%
viability, T/C [20]: 101%
viability, T/C [21]: 103%
viability, T/C [22]: 86.6%
viability, T/C [23]: 94.9%
viability, T/C [24]: 99.9%
viability, T/C [25]: 97%
viability, T/C [26]: 102%
viability, T/C [27]: 95.4%
viability, T/C [28]: 97.7%
viability, T/C [29]: 90.9%
viability, T/C [30]: 108%
viability, T/C [31]: 109%
viability, T/C [32]: 103%
viability, T/C [33]: 106%
viability, T/C [34]: 97%
viability, T/C [35]: 92.1%

Nc1ccn(C2OC(CO)C(O)C2(F)F)c(=O)n1 (centres undefined) + CC(CO)NC(=O)c1cc(-c2ccc(Cl)cc2)nn(-c2cnn(C)c2)c1=O
IC50 [1]: > 10 µM
IC50 [2]: > 10 µM
IC50 [3]: > 10 µM
IC50 [4]: > 10 µM
IC50 [5]: > 10 µM
viability, T/C [6]: 81.9%
viability, T/C [7]: 79.7%
viability, T/C [8]: 71.8%
viability, T/C [9]: 62.2%
viability, T/C [10]: 59.9%
viability, T/C [11]: 67.7%
viability, T/C [12]: 80.7%
viability, T/C [13]: 73%
viability, T/C [14]: 70.8%
viability, T/C [15]: 68.3%
viability, T/C [16]: 62.6%
viability, T/C [17]: 69.9%
viability, T/C [18]: 84%
viability, T/C [19]: 68.5%
viability, T/C [20]: 68.3%
viability, T/C [21]: 59.5%
viability, T/C [22]: 70%
viability, T/C [23]: 71.5%
viability, T/C [24]: 81.1%
viability, T/C [25]: 75.9%
viability, T/C [26]: 64.4%
viability, T/C [27]: 64.7%
viability, T/C [28]: 76.6%
viability, T/C [29]: 63.6%
viability, T/C [30]: 90.2%
viability, T/C [31]: 82.5%
viability, T/C [32]: 65.3%
viability, T/C [33]: 65.1%
viability, T/C [34]: 77.2%
viability, T/C [35]: 74.3%

O=C(C=Cn1cnc(-c2cc(C(F)(F)F)cc(C(F)(F)F)c2)n1)NNc1cnccn1
viability, T/C (compound 0.00949 µM): 102% and 119% and 97.2%
viability, T/C (compound 0.03 µM): 104% and 110% (2×)
viability, T/C (compound 0.0949 µM): 105% and 119% and 115%
viability, T/C (compound 0.3 µM): 115% and 107% and 129%
viability, T/C (compound 0.949 µM): 114% and 113% and 116%
viability, T/C (compound 3 µM): 93.8% and 94.4% and 92.8%
IC50 (curve of compound): > 3 µM

Nc1ccccc1NC(=O)c1ccc(CNC(=O)OCc2cccnc2)cc1
viability, T/C (compound 0.0316 µM): 95% and 98.2% (2×)
viability, T/C (compound 0.1 µM): 91.3% and 103% (2×)
viability, T/C (compound 0.316 µM): 82.6% and 96.2% and 85.1%
viability, T/C (compound 1 µM): 75.5% and 87.3% and 72.5%
viability, T/C (compound 3.16 µM): 57.6% and 59% and 59.5%
viability, T/C (compound 10 µM): 45.6% and 37.9% and 39.1%
IC50 (curve of compound): 6.73 µM and 5.17 µM and 5.09 µM
